Results on eleven compounds are retold here after PubChem BioAssay (NCI).

Each structure is given as a SMILES string.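 48-hour exposure; five concentrations; linearly interpolated endpoints. TGI: total growth inhibition.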

Test in all cases: DTP human tumour cell line panel, 48 h
Test [1] relates to RXF 393 renal.
For test [2], the system named is HOP-92 NSCLC.
The test system of test [3] is NCI/ADR-RES ovarian.
Test [4] deals with BT-549 breast.
For test [5], the system named is T-47D breast.
For test [6], the system named is TK-10 renal.
The subject of test [7] is 786-0 renal.
The subject of test [8] is COLO 205 colon.
For test [9], the system named is UACC-257 melanoma.
Test [10] concerns A498 renal.

What is called TGI is the concentration giving total growth inhibition. High values mean less potent growth arrest, low ones more potent growth arrest. With `CC(C)(C)OC(=O)CN1CCNCCNCC1`, the TGI in test [1], in [2], in test [3], in test [4], in test [5] and in [6] was above 100 µM in each case. For the same compound, the TGI in test [7], in [8], in test [9] and in test [10] was above 100 µM throughout.
With `Nc1nc2c(=O)c3ccccc3sc2s1`, the TGI was above 100 µM in test [1]; above 100 µM in test [2]; 90.5 µM in test [3]; above 100 µM in test [4]; above 100 µM in test [5]; above 100 µM in [6]. Moreover, the total growth inhibition concentration (TGI) in test [7], in [8], in test [9] and in test [10] was above 100 µM in each case.
For `COc1cc(/C=C2/SC(c3ccccc3)N(c3ccc(NC(C)=O)cc3)C2=O)cc(OC)c1OC` (stereo not given), the TGI in [1], in test [2], in test [3], in [4], in test [5] and in test [6] was above 100 µM in each case. Besides, the TGI in test [7], in test [8], in test [9] and in test [10] was above 100 µM throughout.
Take `O=c1[nH]c(=O)n(C2CC(O)C(CO)O2)cc1I` (stereo not given): the TGI in [1], in test [2], in [3], in test [4], in [5] and in [6] was above 100 µM throughout. The TGI in test [7], in test [8], in test [9] and in test [10] was above 100 µM in each case.
As to `C=C(C)[C@@H]1CC[C@]2(C(=O)O)CC[C@]3(C)[C@H](CC[C@@H]4[C@@]5(C)CC(=O)C(C)(C)[C@@H]5CC[C@]43C)[C@@H]12`, the TGI in test [1], in [2], in test [3], in [4], in [5] and in test [6] was above 25 µM each time. Also, the TGI in test [7] is above 25 µM; in test [8], 8.71 µM; in test [9], 22.3 µM; in [10] it was 17.2 µM.
Consider `CCOC(=O)c1cn(-c2ccccc2)c(=S)n2c1nc1ccccc12`, for which the TGI is above 100 µM in [1]; 47.7 µM in test [2]; above 100 µM in test [3]; above 100 µM in test [4]; above 100 µM in test [5]; above 100 µM in test [6]. For the same compound, the TGI in test [7] was above 100 µM; in [8], above 64.8 µM; in [9] it was above 100 µM; in test [10] it was above 100 µM.
In the case of `O=C1CSC2(CC(/C=C/c3ccccc3)=NN2c2cccc(S(=O)(=O)O)c2)N1c1nc2ccccc2s1` (stereo not given), the TGI in test [1] is 51.7 µM; in test [2], 77.3 µM; in [3] it was above 100 µM; in test [4] it was 52.8 µM; in test [5], 52.5 µM; in test [6], 46.9 µM. Also, the TGI in [7] is 33 µM; in test [8] it was above 100 µM; in test [9] it was above 100 µM; in test [10], 64.3 µM.
For `CN(C)CCNc1ccc(C(=O)NCCCN(C)CCCNC(=O)c2ccc(NCCN(C)C)c3c(=O)c4ccccc4[nH]c23)c2[nH]c3ccccc3c(=O)c12`, the TGI in test [1] was 0.912 µM; in test [2] it was 0.616 µM; in [3], above 63.8 µM; in test [4], 0.971 µM; in [5], 2.64 µM; in test [6] it was 6.94 µM. The TGI in test [7] came to 1.66 µM; in [8], 0.727 µM; in test [9], 3.25 µM; in test [10] it was 1.12 µM.
Turning to `CN1C/C(=C\c2cccs2)C2=NC(=S)NC(c3cccs3)C2C1` (stereo not given), the TGI in test [1] was above 100 µM; in [2], above 100 µM; in test [3], above 100 µM; in test [4] it was above 100 µM; in [5], 84.5 µM; in test [6] it was above 100 µM. In addition, the TGI in test [7], in test [8], in test [9] and in test [10] was above 100 µM throughout.
As to `O=C(O)c1ccccc1.[Ag]`, the TGI in test [1] is 35.9 µM; in test [2], 41.3 µM; in test [3] it was above 100 µM; in test [4] it was 64.9 µM; in [5] it was 5.28 µM; in [6] it was 19.6 µM. For the same compound, the TGI in test [7] came to 32.7 µM; in test [8], 4.12 µM; in test [9], 10.2 µM; in [10], 36.8 µM.
With `Clc1ccc(-c2ccc(-c3nnc(CCc4nnc(-c5ccc(-c6ccc(Cl)cc6)o5)o4)o3)o2)cc1`, the TGI is above 56 µM in test [1]; above 64.1 µM in test [2]; above 100 µM in [3]; above 100 µM in test [4]; above 100 µM in test [5]; above 86 µM in test [6]. Besides, the TGI in test [7] is above 100 µM; in test [8], above 100 µM; in [9], above 100 µM; in test [10], above 92.2 µM.
